Measurements as given in ChEMBL document CHEMBL3864125, “Design, synthesis and evaluation of 4-dimethylamine flavonoid derivatives as potential multifunctional anti-Alzheimer agents” (Eur J Med Chem, 2016).
The source made the active and inactive calls. The rule behind the calls is not given here.

Tests used:
[1] = molecular target: Acetylcholinesterase (Electrophorus electricus) (UniProt O42275); assay: Mixed-type inhibition of electric eel AChE using ATC as substrate at 1.25 to 5 uM preincubated for 15 mins followed by substrate addition by Lineweavere-Burk plot analysis
Cholinesterase = Cholinesterase (Equus caballus, UniProt P81908)
Description: Inhibition of horse serum BChE using BTC as substrate preincubated for 15 mins followed by substrate addition by UV-spectrophotometric analysis

Acetylcholinesterase = Acetylcholinesterase (Electrophorus electricus, UniProt O42275)
Description: Inhibition of electric eel AChE using ATC as substrate preincubated for 15 mins followed by substrate addition by UV-spectrophotometric analysis

[2] = molecular target: Cholinesterase (Equus caballus) (UniProt P81908); settings: 125 to 500 nM
PC-12 [3] = assay: Protective effect against H2O2-induced cell death in rat PC12 cells at 5 uM preincubated for 2 hrs followed by H2O2 addition for 24 hrs by MTT assay; type: functional, cell-based
[4] = molecular target: Cholinesterase (Equus caballus) (UniProt P81908); assay: Mixed-type inhibition of horse serum BChE using BTC as substrate at 12.5 to 100 nM preincubated for 15 mins followed by substrate addition by Lineweavere-Burk plot analysis
PC-12 [5] = assay: Protective effect against H2O2-induced cell death in rat PC12 cells at 1 to 5 uM preincubated for 2 hrs followed by H2O2 addition for 24 hrs by MTT assay; type: functional, cell-based
[6] = molecular target: T1, Amyloid-beta precursor protein (Homo sapiens, UniProt P05067)
Description: Inhibition of self-mediated amyloid beta (1 to 42) (unknown origin) aggregation after 48 hrs by thioflavin T fluorescence assay

PC-12 [7] = assay: Antioxidant activity in rat PC12 cells assessed as decrease of H2O2-induced ROS production at 2.5 uM preincubated for 2 hrs followed by H2O2 addition for 24 hrs by DCFH-DA /DAPI-based fluorescence assay; type: functional, cell-based
[8] = molecular target: Acetylcholinesterase (Electrophorus electricus) (UniProt O42275); assay: Mixed-type inhibition of electric eel AChE using ATC as substrate at 25 to 100 nM preincubated for 15 mins followed by substrate addition by Lineweavere-Burk plot analysis
[9] = molecular target: T1, Amyloid-beta precursor protein; assay: Potency index, ratio of curcumin IC50 to compound IC50 for self-mediated amyloid beta (1 to 42) (unknown origin) aggregation
Rattus norvegicus = organism: Rattus norvegicus; assay: Cytotoxicity against rat PC12 cells assessed as reduction in cell viability at 1 to 5 uM after 2 hrs by MTT assay; type: toxicity; settings: pc-12, 2 h

Chain of Cholinesterase (P81908 whole entry): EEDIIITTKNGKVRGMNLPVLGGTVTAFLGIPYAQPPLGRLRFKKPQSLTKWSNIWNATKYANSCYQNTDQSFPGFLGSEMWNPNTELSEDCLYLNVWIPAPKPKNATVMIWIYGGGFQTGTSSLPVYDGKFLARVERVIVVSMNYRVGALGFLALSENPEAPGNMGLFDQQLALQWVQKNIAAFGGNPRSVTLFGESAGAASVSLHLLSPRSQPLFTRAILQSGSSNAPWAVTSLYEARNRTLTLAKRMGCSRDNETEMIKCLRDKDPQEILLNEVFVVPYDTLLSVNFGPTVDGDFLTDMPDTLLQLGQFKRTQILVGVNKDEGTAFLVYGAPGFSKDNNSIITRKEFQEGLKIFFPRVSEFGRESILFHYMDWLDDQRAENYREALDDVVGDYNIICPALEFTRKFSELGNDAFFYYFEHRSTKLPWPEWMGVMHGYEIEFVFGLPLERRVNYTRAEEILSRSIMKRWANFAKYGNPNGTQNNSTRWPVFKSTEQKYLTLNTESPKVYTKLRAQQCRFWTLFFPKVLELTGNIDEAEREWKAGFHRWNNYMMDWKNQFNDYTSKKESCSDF
Chain of Acetylcholinesterase (O42275 whole entry): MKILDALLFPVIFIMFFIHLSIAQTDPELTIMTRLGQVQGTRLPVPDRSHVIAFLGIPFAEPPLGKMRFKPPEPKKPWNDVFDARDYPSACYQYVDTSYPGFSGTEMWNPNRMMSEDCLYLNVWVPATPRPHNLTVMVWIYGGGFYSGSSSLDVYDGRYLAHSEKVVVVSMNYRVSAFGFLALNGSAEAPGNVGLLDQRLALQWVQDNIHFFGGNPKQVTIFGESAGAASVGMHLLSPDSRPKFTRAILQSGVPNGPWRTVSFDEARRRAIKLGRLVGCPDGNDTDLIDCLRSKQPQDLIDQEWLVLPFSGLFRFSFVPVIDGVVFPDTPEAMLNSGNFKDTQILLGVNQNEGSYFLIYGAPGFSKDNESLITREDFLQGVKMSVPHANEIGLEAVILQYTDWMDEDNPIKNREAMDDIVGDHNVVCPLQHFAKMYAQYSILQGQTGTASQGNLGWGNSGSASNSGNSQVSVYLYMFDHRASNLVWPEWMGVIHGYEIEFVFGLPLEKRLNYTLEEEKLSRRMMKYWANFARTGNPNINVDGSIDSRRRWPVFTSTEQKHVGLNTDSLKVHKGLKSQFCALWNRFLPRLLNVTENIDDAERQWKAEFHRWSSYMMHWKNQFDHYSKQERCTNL
Chain of Acetylcholinesterase (Electrophorus electricus) (O42275 24-633 limits assumed): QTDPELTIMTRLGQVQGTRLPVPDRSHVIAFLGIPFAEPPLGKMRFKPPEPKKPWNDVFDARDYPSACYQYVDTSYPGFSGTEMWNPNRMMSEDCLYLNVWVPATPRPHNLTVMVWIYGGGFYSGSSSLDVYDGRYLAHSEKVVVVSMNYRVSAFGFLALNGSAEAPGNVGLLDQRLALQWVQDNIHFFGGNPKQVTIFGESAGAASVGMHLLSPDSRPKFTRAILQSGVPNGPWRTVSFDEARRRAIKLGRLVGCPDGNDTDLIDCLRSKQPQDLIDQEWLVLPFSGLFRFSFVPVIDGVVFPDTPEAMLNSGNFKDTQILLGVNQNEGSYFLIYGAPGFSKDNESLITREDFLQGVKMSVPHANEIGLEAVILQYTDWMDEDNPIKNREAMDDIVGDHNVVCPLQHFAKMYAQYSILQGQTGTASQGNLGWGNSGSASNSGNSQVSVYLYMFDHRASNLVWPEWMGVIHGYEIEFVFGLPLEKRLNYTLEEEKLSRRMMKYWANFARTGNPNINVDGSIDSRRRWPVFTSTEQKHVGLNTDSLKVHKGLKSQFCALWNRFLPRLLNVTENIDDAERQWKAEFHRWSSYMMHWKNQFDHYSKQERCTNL
T1 sequence (P05067 whole entry): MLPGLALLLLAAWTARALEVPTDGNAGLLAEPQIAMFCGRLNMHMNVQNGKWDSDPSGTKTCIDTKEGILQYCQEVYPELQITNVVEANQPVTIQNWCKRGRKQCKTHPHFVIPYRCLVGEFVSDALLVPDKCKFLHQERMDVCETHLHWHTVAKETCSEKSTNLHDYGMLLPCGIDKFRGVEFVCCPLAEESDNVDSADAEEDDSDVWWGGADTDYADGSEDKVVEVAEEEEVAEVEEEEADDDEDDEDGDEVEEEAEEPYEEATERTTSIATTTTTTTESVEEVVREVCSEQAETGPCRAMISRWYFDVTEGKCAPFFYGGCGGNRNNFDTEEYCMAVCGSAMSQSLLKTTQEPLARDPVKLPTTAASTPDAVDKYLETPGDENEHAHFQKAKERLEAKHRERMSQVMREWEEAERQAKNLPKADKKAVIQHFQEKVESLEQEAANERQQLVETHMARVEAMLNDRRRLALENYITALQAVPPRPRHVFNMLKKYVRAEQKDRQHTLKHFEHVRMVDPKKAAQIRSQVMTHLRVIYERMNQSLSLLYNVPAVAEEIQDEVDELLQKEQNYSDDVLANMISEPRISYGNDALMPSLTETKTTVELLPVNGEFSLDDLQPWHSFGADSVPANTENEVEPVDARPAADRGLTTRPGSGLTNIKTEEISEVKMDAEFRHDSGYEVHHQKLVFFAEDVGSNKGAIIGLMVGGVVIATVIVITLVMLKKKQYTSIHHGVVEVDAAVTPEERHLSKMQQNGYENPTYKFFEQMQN
Chain of Cholinesterase (Equus caballus) (P81908 whole entry): as the sequence (P81908 whole entry) above

| Structure (SMILES) | IC50 (Cholinesterase) [nM] | IC50 (Acetylcholinesterase) [nM] | other results |
| --- | --- | --- | --- |
| CN(C)c1ccc(-c2cc(=O)c3ccc(OCC(=O)NCCCCCCCCN4CCCC4)cc3o2)cc1 | 238 | 2300 | inhibition [1]: Active; inhibition [2]: Active |
| CN(C)c1ccc(-c2cc(=O)c3ccc(OCC(=O)NCCCN4CCCC4)cc3o2)cc1 | 21600 | 7620 | – |
| CN(C)c1ccc(-c2cc(=O)c3ccc(OCC(=O)NCCCCN4CCCC4)cc3o2)cc1 | 11600 | 4830 | – |
| CN(C)c1ccc(-c2cc(=O)c3ccc(OCC(=O)NCCCCCCN4CCCC4)cc3o2)cc1 | 1350 | 3200 | – |
| CN(C)c1ccc(-c2cc(=O)c3ccc(OCC(=O)NCCN4CCCC4)cc3o2)cc1 | 27200 | 3130 | – |
| CN(C)c1ccc(-c2cc(=O)c3ccc(OCC(=O)NCCCCNc4c5c(nc6ccccc46)CCCC5)cc3o2)cc1 | 335 | 1460 | – |
| CN(C)c1ccc(-c2cc(=O)c3ccc(OCC(=O)NCCCCCCNc4c5c(nc6ccccc46)CCCC5)cc3o2)cc1 | 46.2 | 59.6 | Activity (PC-12 [3]): Active; inhibition [4]: Active; Activity (PC-12 [5]): Active; IC50 [6]: 9470 nM; Activity (PC-12 [7]): Active; inhibition [8]: Active; Ratio IC50 [9]: 2; Activity (Rattus norvegicus): Non-Toxic |
| CN(C)c1ccc(-c2cc(=O)c3ccc(OCC(=O)NCCCCCCCCNc4c5c(nc6ccccc46)CCCC5)cc3o2)cc1 | 24.7 | 94.6 | – |
| CN(C)CCNC(=O)COc1ccc2c(=O)cc(-c3ccc(N(C)C)cc3)oc2c1 | 10700 | 5240 | – |
| CN(C)c1ccc(-c2cc(=O)c3ccc(OCC(=O)NCCNc4c5c(nc6ccccc46)CCCC5)cc3o2)cc1 | 814 | 418 | – |
| CN(C)CCCNC(=O)COc1ccc2c(=O)cc(-c3ccc(N(C)C)cc3)oc2c1 | 13600 | 11900 | – |
| CN(C)c1ccc(-c2cc(=O)c3ccc(OCC(=O)NCCCNc4c5c(nc6ccccc46)CCCC5)cc3o2)cc1 | 266 | 769 | – |
| O=c1c(O)c(-c2ccc(O)c(O)c2)oc2cc(O)cc(O)c12 | – | – | Activity (PC-12 [3]): Active; Activity (PC-12 [7]): Active |
